We go through four molecules from paper PMC7470115, “Design, synthesis and biological evaluation of novel tetrahydrothieno [2,3-c]pyridine substitued benzoyl thiourea derivatives as PAK1 inhibitors in triple negative breast cancer” (Journal of Enzyme Inhibition and Medicinal Chemistry, 2020).

One may read the inhibition as the drop in the measured response relative to a control, in per cent. As a reminder, the melting point is the temperature, or range, at which the solid turns liquid.

Read-outs that look alike come from different tables or passages of the source.

In data set [1] the test system is MDA-MB-231 cells. Briefly: Cell viability assay (MTT). It counts as cell-based. The note with it: for IC50: MTT. Here is the method:
(§1) MDA-MB-231 were purchased from American Type Culture Collection (ATCC, Manassas, VA, USA). Cells were cultured in DMEM with 10% foetal bovine serum and incubated with 5% CO2. Antibodies used in this study were as follows: cdc25c (4688, CST), pcdc2^Tyr[15] (4539, CST), cyclinB1 (4135, CST), PAK1 (ab223849, CST), p-PAK1^Ser199 (ab192814, abcam), JNK (9252, CST), p-JNK (9255, CST), c-Jun (9165, CST), p-c-Jun (3270, CST), p-c-Raf^Ser259(9421, CST), p-MEK ^Ser217/221 (9154, CST), p-ERK ^Thr202/Tyr204 (9101, CST), β-actin (3700, CST). MTT (M2128) was purchased from Sigma- Aldrich (St. Louis, MO, USA).
Cells were dispensed in 96-well plates at a density of 5 × 10^4 cells/ml. After 24 h or 48 h incubation, cells were treated with different concentrations of compounds for the indicated time periods. Cell viability was measured by the MTT assay.

The target of data set [2] is T1, PAK1 (Homo sapiens, UniProt Q13153). The data set can be described thus: PAK1 enzymatic assay (Kinase-Glo Plus / ADP-Glo luminescence). The format is biochemical. Here is the method: These assays were carried out as described previously. All of the enzymatic reactions were conducted at 30 °C for 40 min. The 50 µl reaction mixture contains 40 mM Tris, pH 7.4, 10 mM MgCl2, 0.1 mg/ml BSA, 1 mM DTT, 50 µM ATP, 0.2 μg/ml PAK1 and 100 uM lipid substrate. The compounds were diluted in 10% DMSO and 5 µl of the dilution was added to a 50 µl reaction so that the final concentration of DMSO is 1% in all of the reactions. The assay was performed using the Kinase-Glo Plus luminescence kinase assay kit and ADP-Glo Plus luminescence kinase assay kit. It measures kinase activity by quantitating the amount of ATP remaining in solution following a kinase reaction. The luminescent signal from the assay is correlated with the amount of ATP present and is inversely correlated with the amount of kinase activity. The IC50 values were calculated using nonlinear regression with normalised dose − response fit using Prism GraphPad software.
T1 sequence (Q13153 whole entry): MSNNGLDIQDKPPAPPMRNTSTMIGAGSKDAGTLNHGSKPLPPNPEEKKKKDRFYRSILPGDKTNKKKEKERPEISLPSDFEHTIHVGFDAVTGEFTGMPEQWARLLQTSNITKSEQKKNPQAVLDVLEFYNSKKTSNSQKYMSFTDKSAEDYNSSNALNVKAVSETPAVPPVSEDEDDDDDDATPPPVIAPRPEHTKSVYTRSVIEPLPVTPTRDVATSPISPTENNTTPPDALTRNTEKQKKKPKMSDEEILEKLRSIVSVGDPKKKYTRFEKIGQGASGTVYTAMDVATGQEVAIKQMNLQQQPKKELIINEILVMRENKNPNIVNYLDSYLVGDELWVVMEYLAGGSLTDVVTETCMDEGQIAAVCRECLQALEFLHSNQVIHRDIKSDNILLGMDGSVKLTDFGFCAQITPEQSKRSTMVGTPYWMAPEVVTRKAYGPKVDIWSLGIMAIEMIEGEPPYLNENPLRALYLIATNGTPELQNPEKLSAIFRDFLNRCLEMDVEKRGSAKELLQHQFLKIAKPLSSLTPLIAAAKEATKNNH
In general terms: In Kinase-Glo more light means more ATP remaining.

In data set [3] the target is T1, PAK1. Briefly: Western blot of PAK1 and p-PAK1 Ser199 in MDA-MB-231 cells. The format is cell-based. The note with it: 48 h. The protocol: as §1
(§2) Cells were treated with 7j for indicated times. Both adherent and floating cells were collected. Western blot analysis was carried out. Briefly, the cell pellets were resuspended with lysis buffer consisting of Hepes 50 mM pH 7.4, Triton-X-100 1%, sodium orthovanada 2 mM, sodium fluoride 100 mM, edetic acid 1 mM, PMSF 1 mM, aprotinin (Sigma, MO, USA) 10 mg/L and leupeptin (Sigma) 10 mg/L and lysed at 4 °C for 1 h. After 12,000 rpm centrifugation for 15 min, the protein content of supernatant was determined by the Bio- Rad DC protein assay (Bio-Rad Laboratories, Hercules, CA, USA). Equal amounts of the total protein were separated by 10–15% SDS-PAGE and transferred to PVDF membranes, the membranes were soaked in blocking buffer (5% skimmed milk or BSA). Proteins were detected using primary antibodies, followed by HRP-conjugated secondary antibody and visualised by using ECL as the HRP substrate. Quantification of immunoblot was performed by Quantity One 4.4.
For orientation: In western blotting, separated proteins are transferred to a membrane and probed.

The target in data set [4] is T1, PAK1. The data set can be described thus: Cellular thermal shift assay (CETSA). The format is cell-based. The note with it: 10 μM, 24 h; 48, 52, 56 °C. Here is the method: The ability of 7j to interact with and stabilise PAK1 protein in intact cells, was analysed as described before. Briefly, cells cultured in 100 × 20 mm tissue culture dishes at 90% confluence were treated with media containing DMSO or 7j (10 μM) for 24 h. After that cells were detached with trypsin and re-suspended in PBS. The cell suspension was heated for 3 min to 48, 52, and 56 °C. Subsequently, cells were lysed using liquid nitrogen and two repeated cycles of freeze-thaw. Precipitated proteins were separated from the soluble fraction by centrifugation at 17,000 g for 20 min. Soluble proteins, collected in the supernatant, were kept at −80 °C until Western blot analysis.

Another data set has as its system cdc25c/cdc2 pathway. Briefly: Immunofluorescence and western blot of cdc25c/cdc2 pathway in MDA-MB-231 cells. It counts as cell-based. Here is the method: (§3) For immunofluorescence staining, non-specific antibody binding was blocked by incubating with PBS containing 1.5% goat serum. The MDA-MB-231 cells were sequentially incubated, starting with p-cdc2^Tyr[15] antibody (1:200), p-ERK1/2 ^Thr202/Tyr204 antibody (1:200) diluted in PBS containing 1% BSA incubated overnight at 4 °C, followed by addition of fluorescent-labelled secondary antibodies for 1 h at room temperature.
as §2
Cells were transfected with PAK1 (6361, CST) and negative control (6568, CST) siRNAs at 100 nM final concentration using Lipofectamine RNAiMAX/Lip3000 reagent (Invitrogen) according to the manufacturer’s instructions. The transfected cells were used for subsequent experiments 48 h later.

The next data set has as its system MAPK-JNK pathway. Briefly: Western blot of MAPK-JNK pathway in MDA-MB-231 cells. It counts as cell-based. The note with it: 2.5, 5, 10 µM, 48 h western blot. Here is the method: as §2
Data set [5] has as its system MDA-MB-231 cells. The data set can be described thus: Cell cycle assay (PI staining, flow cytometry). The format is cell-based. The note with it: 2.5, 5, 10 μM, 48 h. The protocol: For cell cycle detection, MDA-MB-231 cells were treated with 2.5, 5, 10 μM 7j for 48 h and then ethyl alcohol-fixed at 4 °C for 24 h. Then the cell cycle distribution were determined by flow cytometry analysis of PI staining.
A general note: Flow cytometry measures light scatter and fluorescence of single cells or particles in a stream.

The next data set relates to MAPK-ERK pathway. Briefly: Immunofluorescence and western blot of MAPK-ERK pathway in MDA-MB-231 cells. It counts as cell-based. Here is the method: as §3, §2
In data set [6] the test system is MDA-MB-231 cells. The data set can be described thus: Colony formation assay. It counts as cell-based.
The mark [7] stands for this setting: tested in triplicate, mean ± SD, 50 µM ATP, read-out: Kinase inhibitory activity (IC50, μM) PAK1.
Setting [8] is: 2.5, 5, 10 µM, 48 h western blot.

With `CC(C)(C)OC(=O)N1CCc2c(sc(NC(=O)c3ccccc3)c2C(N)=O)C1` [2169–1087], in the data set on MDA-MB-231 cells [1] (50 μM), the “Antiproliferatory activity in MDA-MB-231 cells at 50 μM” value is “no antiproliferatory activity”. In addition, the inhibition at 30 µM on PAK1 [2] (read-out: PAK1 inhibition rate at 30 μM) turned out to be 78%. Also, the IC50 at PAK1 [2] (setting [7]) is 23.5 µM.

`NC(=O)c1c(NC(=S)NC(=O)c2cccc(C(F)(F)F)c2)sc2c1CCN(C(=O)c1ccccc1Cl)C2` [Compound 7c, 6–(2-chlorobenzoyl)-2–(3-(3-(trifluoromethyl)benzoyl)thioureido)-4,5,6,7-tetrahydrothieno[2,3-c]pyridine-3-carboxamide] displayed a melting point of 166 to 169 °C. Besides, at PAK1 [2] (setting [7]), the IC50 turned out to be 9.37 ± 1.03 µM.

In the case of `CC(=O)N1CCc2c(sc(NC(=S)NC(=O)c3cccc(C(F)(F)F)c3)c2C(N)=O)C1` [Compound 7d, 6-acetyl-2–(3-(3-(trifluoromethyl)benzoyl)thioureido)-4,5,6,7-tetrahydrothieno[2,3-c]pyridine-3-carboxamide], the melting point was in the range of 166 to 169 °C. Besides, on PAK1 [2] (setting [7]), the IC50 is 1.15 ± 0.97 µM.

For the molecule `NC(=O)c1c(NC(=S)NC(=O)c2cccc(C(F)(F)F)c2)sc2c1CCN(C(=O)C1CC1)C2` [Compound 7j, 6-(cyclopropanecarbonyl)-2–(3-(3-(trifluoromethyl)benzoyl)thioureido)-4,5,6,7-tetrahydrothieno[2,3-c]pyridine-3-carboxamide], at PAK1 [3] (2.5, 5, 10 μM), the “Phosphorylation of PAK1 at Ser199” value is listed as “inhibited the phosphorylation of PAK1 at Ser199”. The “PAK1 expression (western blot)” value at PAK1 [3] (larger dose 10 μM) is on record as “suppressed PAK1 expression”; on PAK1 [3] (smaller dose 2.5 μM and 5 μM) it was “did not affect PAK1 expression”. For the same molecule, the “Thermal stabilisation of PAK1 (CETSA)” value on PAK1 [4] was “could stabilise PAK1”. Moreover, the IC50 in the data set on MDA-MB-231 cells [1] (Homo sapiens, MDA-MB-231, 24 h, 24 h, read-out: MDA-MB-231 cell viability IC50, 24 h) came out at 7.37 µM; in the data set with MDA-MB-231 cells [1] (Homo sapiens, MDA-MB-231, 48 h, 48 h, read-out: MDA-MB-231 cell proliferation IC50, 48 h) it was 4.67 µM; in the data set with MDA-MB-231 cells [1] (48 h, read-out: MDA-MB-231 cell proliferation IC50, 48 h), 4.67 µM; at PAK1 [2] (setting [7]) it was 0.21 ± 0.05 µM; at PAK1 [2] (value given in nM in the text, read-out: PAK1 IC50), 0.209 µM. Moreover, in the data set with cdc25c/cdc2 pathway (5 µM, 48 h immunofluorescence), the “p-cdc2 Tyr15 expression” value is on record as “obviously increased”. Further, the “Expression of cdc25c, cyclinB1, Pin1 and NEDD8” value in the data set with cdc25c/cdc2 pathway (setting [8]) is “could decrease the expression”. Moreover, the “Phosphorylation of p-cdc2 at Tyr15 after PAK1 knockdown” value in the data set with cdc25c/cdc2 pathway (si-PAK1, 5 μM, 48 h) is reported as “almost did not affect”. In addition, the “JNK and c-Jun phosphorylation” value in the data set on MAPK-JNK pathway was “decrease of JNK and c-Jun phosphorylation”. In the data set on MDA-MB-231 cells [5], the Cell cycle arrest entry is given as “induced obviously G2/M cell cycle arrest”. On PAK1 [2] (7j versus FRAX597), the “Fold less PAK1 inhibitory activity in comparison to the standard FRAX597” value is listed as “over 10 fold”. In the data set on MAPK-ERK pathway (5 µM, 48 h immunofluorescence), the “p-ERK1/2 Thr202/Tyr204 expression and nucleus distribution” value was “inhibited its expression and nucleus distribution”. The “Phosphorylation of p-c-Raf, p-MEK1/2 and p-ERK1/2” value in the data set on MAPK-ERK pathway (setting [8]) was “suppressed MAPK-ERK pathway”. In the data set with MDA-MB-231 cells [6], the “Proliferation and colony formation ability of MDA-MB-231 cells” value is reported as “obviously inhibited”.
